Experiment: xn = mol fraction of the nth substance listed
Settings: Liquid, Vibrating tube method

CC(C)OC(C)C [diisopropyl ether] + CCCCCCO
mass density [kg/m3]
Settings	293.15 K	313.15 K	333.15 K	353.15 K	373.15 K	393.15 K
100 kPa, x1 = 0.1524	806.7	791.5	775.6	759.2	741.8	–
100 kPa, x1 = 0.3196	792.1	776	759.2	741.7	723.3	–
100 kPa, x1 = 0.4906	776.3	759.1	741.1	722.5	702.7	–
100 kPa, x1 = 0.6974	756.4	737.8	718.3	698	676.5	–
100 kPa, x1 = 0.8457	741.2	721.4	700.6	679.1	656.3	–
500 kPa, x1 = 0.1524	806.9	791.8	776	759.5	742	724.7
500 kPa, x1 = 0.3196	792.3	776.3	759.6	742.1	723.5	705
500 kPa, x1 = 0.4906	776.7	759.5	741.6	723	703.1	683.5
500 kPa, x1 = 0.6974	756.8	738.2	718.8	698.5	677	655.7
500 kPa, x1 = 0.8457	741.7	721.9	701.3	679.8	657	634.2
1000 kPa, x1 = 0.1524	807.2	792.2	776.5	760	742.6	725.4
1000 kPa, x1 = 0.3196	792.7	776.7	760.1	742.7	724.1	705.7
1000 kPa, x1 = 0.4906	777.1	760	742.2	723.6	703.9	684.4
1000 kPa, x1 = 0.6974	757.3	738.8	719.5	699.3	678	656.8
1000 kPa, x1 = 0.8457	742.2	722.5	702.1	680.7	658.1	635.6
2000 kPa, x1 = 0.1524	807.9	793	777.4	761	743.8	726.7
2000 kPa, x1 = 0.3196	793.5	777.6	761.1	743.8	725.5	707.3
2000 kPa, x1 = 0.4906	777.9	761	743.3	724.9	705.4	686.3
2000 kPa, x1 = 0.6974	758.3	739.9	720.8	700.8	679.9	659.1
2000 kPa, x1 = 0.8457	743.3	723.8	703.6	682.5	660.3	638.4
5000 kPa, x1 = 0.1524	810	795.3	780	764	747.1	730.5
5000 kPa, x1 = 0.3196	795.7	780.2	764	747.1	729.2	711.7
5000 kPa, x1 = 0.4906	780.4	763.9	746.7	728.8	709.9	691.5
5000 kPa, x1 = 0.6974	761.1	743.3	724.7	705.4	685.2	665.6
5000 kPa, x1 = 0.8457	746.4	727.5	707.9	687.6	666.5	645.9
10000 kPa, x1 = 0.1524	813.4	799	784.2	768.7	752.4	736.6
10000 kPa, x1 = 0.3196	799.5	784.3	768.7	752.4	735.3	718.7
10000 kPa, x1 = 0.4906	784.5	768.4	751.8	734.8	716.7	699.5
10000 kPa, x1 = 0.6974	765.7	748.4	730.6	712.3	693.4	675.3
10000 kPa, x1 = 0.8457	751.4	733.2	714.5	695.5	675.7	657
15000 kPa, x1 = 0.1524	816.6	802.6	788.1	773.1	757.3	742.1
15000 kPa, x1 = 0.3196	803	788.2	773	757.3	740.8	724.9
15000 kPa, x1 = 0.4906	788.3	772.7	756.7	740.2	723	706.6
15000 kPa, x1 = 0.6974	770	753.3	736.1	718.7	700.7	683.6
15000 kPa, x1 = 0.8457	756.1	738.5	720.6	702.5	683.8	666.4
20000 kPa, x1 = 0.1524	819.7	806	791.8	777.3	761.9	747.3
20000 kPa, x1 = 0.3196	806.4	791.9	777.1	761.9	745.9	730.7
20000 kPa, x1 = 0.4906	792	776.8	761.2	745.3	728.8	713.2
20000 kPa, x1 = 0.6974	774.1	757.8	741.3	724.5	707.3	691.2
20000 kPa, x1 = 0.8457	760.5	743.4	726.2	708.9	691.2	674.9
30000 kPa, x1 = 0.1524	825.7	812.4	798.8	785	770.5	756.7
30000 kPa, x1 = 0.3196	812.8	798.9	784.8	770.4	755.4	741.1
30000 kPa, x1 = 0.4906	799	784.3	769.6	754.6	739.1	724.7
30000 kPa, x1 = 0.6974	781.7	766.2	750.7	735	719.1	704.4
30000 kPa, x1 = 0.8457	768.7	752.5	736.4	720.4	704.1	689.3
40000 kPa, x1 = 0.1524	831.2	818.5	805.4	792	778.2	765.3
40000 kPa, x1 = 0.3196	818.6	805.4	791.9	778	763.8	750.4
40000 kPa, x1 = 0.4906	805.3	791.4	777.3	762.9	748.4	735
40000 kPa, x1 = 0.6974	788.6	773.9	759.3	744.3	729.4	715.8
40000 kPa, x1 = 0.8457	776	760.8	745.6	730.4	715.3	701.7
50000 kPa, x1 = 0.1524	836.3	823.9	811.3	798.5	785.2	772.8
50000 kPa, x1 = 0.3196	824.1	811.2	798.3	785	771.3	758.6
50000 kPa, x1 = 0.4906	811.2	797.7	784.2	770.5	756.6	743.9
50000 kPa, x1 = 0.6974	795	780.9	766.8	752.6	738.5	725.7
50000 kPa, x1 = 0.8457	782.9	768.2	753.8	739.4	725	712.2
60000 kPa, x1 = 0.1524	841.3	829.3	817	804.6	791.8	779.9
60000 kPa, x1 = 0.3196	829.4	817	804.4	791.6	778.4	766.4
60000 kPa, x1 = 0.4906	816.8	803.8	790.7	777.6	764.2	752.2
60000 kPa, x1 = 0.6974	801	787.5	773.8	760.6	746.9	734.8
60000 kPa, x1 = 0.8457	789.3	775.1	761.2	747.7	733.9	721.9
70000 kPa, x1 = 0.1524	846.1	834.3	822.4	810.3	797.9	786.7
70000 kPa, x1 = 0.3196	834.5	822.3	810.1	797.7	784.9	773.5
70000 kPa, x1 = 0.4906	822.1	809.5	796.8	784.2	771.3	759.9
70000 kPa, x1 = 0.6974	806.7	793.6	780.5	767.6	754.5	743.1
70000 kPa, x1 = 0.8457	795.3	781.7	768.3	755.2	742	730.7
80000 kPa, x1 = 0.1524	850.4	839	827.3	815.7	803.8	792.8
80000 kPa, x1 = 0.3196	839.1	827.3	815.4	803.3	791.2	779.9
80000 kPa, x1 = 0.4906	827.1	814.7	802.4	790.1	778	766.8
80000 kPa, x1 = 0.6974	812	799.3	786.6	774.1	761.8	750.5
80000 kPa, x1 = 0.8457	800.8	787.7	774.7	762.1	749.5	738.5
90000 kPa, x1 = 0.1524	854.7	843.4	832.2	820.8	809.2	798.6
90000 kPa, x1 = 0.3196	843.6	832	820.4	808.9	796.9	786.1
90000 kPa, x1 = 0.4906	831.8	819.7	807.8	796.1	784	773.4
90000 kPa, x1 = 0.6974	817.1	804.6	792.4	780.4	768.3	757.6
90000 kPa, x1 = 0.8457	806.1	793.2	780.8	768.7	756.4	745.9
100000 kPa, x1 = 0.1524	858.8	847.8	836.8	825.7	814.3	804.1
100000 kPa, x1 = 0.3196	848	836.6	825.3	814	802.4	791.8
100000 kPa, x1 = 0.4906	836.3	824.6	813	801.5	789.8	779.5
100000 kPa, x1 = 0.6974	822	809.8	797.9	786.2	774.4	764.1
100000 kPa, x1 = 0.8457	811.2	798.7	786.7	774.8	762.8	752.7
110000 kPa, x1 = 0.1524	862.7	852	841.1	830.4	819.4	809.4
110000 kPa, x1 = 0.3196	852	841	829.8	818.9	807.6	797.5
110000 kPa, x1 = 0.4906	840.6	829.2	817.8	806.7	795.3	785.4
110000 kPa, x1 = 0.6974	826.6	814.6	803	791.7	780.3	770.3
110000 kPa, x1 = 0.8457	816	803.8	792	780.5	769	759.2
120000 kPa, x1 = 0.1524	866.5	855.9	845.5	834.9	824.2	814.4
120000 kPa, x1 = 0.3196	856	845.2	834.4	823.6	812.6	802.7
120000 kPa, x1 = 0.4906	844.8	833.6	822.6	811.6	800.6	790.8
120000 kPa, x1 = 0.6974	830.9	819.3	808.1	796.9	785.9	776.1
120000 kPa, x1 = 0.8457	820.5	808.7	797.4	786	774.7	765.1
130000 kPa, x1 = 0.1524	870.3	859.9	849.4	839.1	828.6	819.1
130000 kPa, x1 = 0.3196	859.9	849.2	838.6	828	817.3	807.6
130000 kPa, x1 = 0.4906	848.9	837.8	827	816.3	805.5	796
130000 kPa, x1 = 0.6974	835.2	823.9	812.8	801.9	791.1	781.5
130000 kPa, x1 = 0.8457	825	813.4	802.2	791.1	780.2	770.8
140000 kPa, x1 = 0.1524	873.7	863.6	853.4	843.2	833	823.7
140000 kPa, x1 = 0.3196	863.5	853.2	842.8	832.4	821.8	812.4
140000 kPa, x1 = 0.4906	852.6	841.9	831.4	820.8	810.2	801
140000 kPa, x1 = 0.6974	839.2	828.2	817.4	806.6	796.1	786.8
140000 kPa, x1 = 0.8457	829	817.9	807	796	785.3	776.3

From the NIST ThermoML archive (doi:10.1016/j.jct.2017.06.013)
